# Read-outs that look alike come from different tables or passages of the source.
# Columns and labels:
# [1] = test system: women compared with men with heart failure and preserved ejection fraction; details: cited from earlier work
# obese ZSF1 rats = test: ZSF1 rat model of diabetic nephropathy with metabolic syndrome; format: in vivo
# Text: All data are plotted as mean±SEM. #p<0.05. ##p<0.01 vs obese control.
# Aged ZSF1 rats have also been reported to develop HF consistent with HFpEF. In the ZSF1 model of diabetic nephropathy and metabolic syndrome, olinciguat was renoprotective and associated with lower circulating glucose, cholesterol, and triglycerides, all of which are relevant for this the population of post-menopausal women with HFpEF that tend to show a metabolic phenotype. Also in this model, baseline plasma NT-proBNP levels were similar in all obese ZSF1 groups [obese, group treated with enalapril (ENP), ENP+OLI10 (enalapril+oli at 10 mg/kg), and ENP+OLI30 (enalapril+oli at 30 mg/kg)]. NT-proBNP, analyzed as change from baseline to the end of treatment, increased in the obese control and ENP groups, and decreased in ENP+OLI10 and ENP+OLI30 groups (FIG. 5).
# [2] = test system: Dahl salt-sensitive rat model; test: Dahl salt-sensitive (DSS) hypertension rat model of HFpEF; format: in vivo; details: olinciguat 10 mg/kg, FIG. 4
# Description: All data are plotted as mean±SEM. **p<0.01. ***p<0.001 vs high-salt (HS) control.
# The cardioprotective effects of olinciguat were tested in two animal models of HF: the rat post-myocardial infarction (MI) model of heart failure with reduced ejection fraction and in the Dahl salt-sensitive (DSS) hypertension model, which develops HFpEF.
# [3] = test system: normotensive and hypertensive rats; test: Blood pressure in normotensive and hypertensive rats; format: in vivo, rat
# [4] = test system: participants with chronic HF and an ejection fraction (EF) of ≥45% (i.e., HFpEF); details: cited from earlier work
# [5] = test system: participants with chronic HF, an LVEF of at least 45% (i.e., HFpEF); details: cited from earlier work
# participants with HFpEF [6] = test: CAPACITY HFpEF Phase 2 trial of praliciguat: cardiopulmonary exercise testing (CPET); format: in vivo, human
# Text: (§1) A Multicenter, Randomized, Double-Blind, Placebo-Controlled, Phase 2 Study Evaluating the Safety and Efficacy of Different Doses of Praliciguat (IW-1973, Compound I-1) Over 12 Weeks in Patients with Heart Failure with Preserved Ejection Fraction (CAPACITY HFpEF).
# The primary objectives of this clinical study (ClinicalTrials.gov Identifier NCT03254485) were to assess the safety of oral praliciguat when administered for approximately 12 weeks to participants with HFpEF, and to evaluate the effect of oral praliciguat on peak exercise capacity (as measured by oxygen consumption [VO2]) when administered for approximately 12 weeks to participants with HFpEF, both in all participants and in participants without permanent or persistent atrial fibrillation.
# The primary efficacy endpoint was the change from baseline in peak VO2 as measured by cardiopulmonary exercise testing (CPET) at Week 12 of the Treatment period. CPET was performed at baseline, at Week 8 and again at Week 12 using a highly standardized study-specific protocol. To participate in this study, each study site had to submit 2 studies to the CPET Core Laboratory at Massachusetts General Hospital core laboratory for review, and studies had to be determined to be of adequate quality before the site was deemed CPET qualified. For the 3 CPETs required by the study protocol, each study participant was to use the same form of exercise (treadmill or bicycle) and undergo the CPETs at the same time of day (+2 hours), ≥1 hour after study medication dosing. As part of the procedure, participants exercised to peak capacity beginning with unloaded exercise and continuing with a symptom-limited incremental ramp to peak VO2 with requisite respiratory exchange ratio (RER)≥1. For the baseline CPET, a participant's RER had to be ≥1.0 in order to indicate an adequate test (i.e., adequate effort on the part of the study participant, to try to mitigate stopping for non-cardiopulmonary reasons [e.g., effort-related or musculoskeletal]). Additional CPET-related study eligibility criteria included a peak VO2 of ≤80% of the predicted or age- and sex-adjusted normal level (FLETCHER G F, et al. Exercise standards. A statement for healthcare professionals from the American Heart Association. Writing Group. Circulation. 1995;91 [2]: 580-615), which served as an objective indicator of exercise intolerance characteristic of HF. For the Week 8 and End of Treatment CPETs, participants were to exercise to maximum effort, ideally to RER≥1.0. Analysis of CPET measurements for eligibility and for efficacy analyses were conducted by the independent central CPET Core Lab that was blinded to treatment allocation.
# (§2) The pre-specified major secondary endpoints were the change from baseline in 6-minute walk test (6MWT) distance at Week 12, the change from baseline in ventilatory efficiency as defined by VE/VCO2 slope (minute ventilation/volume of carbon dioxide production) as obtained via CPET at Week 12, and the number of CPET responders defined as participants who improved by at least 1.5 mL O2/kg/min in peak VO2 from baseline to Week 12. In the CPET responder analysis, participants who were hospitalized or who died due to heart failure during the study Treatment Period or were missing Week 12 post-dose CPET values were considered to be non-responders.
# (§3) This Phase 2, multicenter, randomized, double-blind, placebo-controlled, parallel-group study evaluated the safety and efficacy of praliciguat compared with placebo. The study randomized 196 adults with established heart failure (HF) and limited exercise capacity with an ejection fraction (EF) of at least 40% and who had at least 2 of 4 risk factors for HFpEF (diabetes/prediabetes, hypertension, obesity, and advanced age) (see Inclusion and Exclusion Criteria below).
# Dosing on Days 1 to 14 (±3) was 20 mg BID (twice daily). Dosing on Day 15 (±3) onward was 40 mg QD (once daily). […]
# participants with HFpEF [7] = test: CAPACITY HFpEF Phase 2 trial of praliciguat: 6-minute walk test (6MWT); format: in vivo, human
# Text: as §1, §2, §3
# Screening Period: The Screening Period started with the signing of the ICF at the Screening Visit and lasted up to 45 days. At the Screening Visit, potential participants underwent screening procedures to determine their initial study eligibility. At the Baseline Visit, participants returned to the clinic for additional screening procedures to confirm their eligibility, including assessment of their CPET values, vital sign measurements, and blood and urine sample collections, and to receive urine sample collection supplies to take home. The Screening Visit could be combined with the Baseline Visit if the participant was fasted for blood and urine collections. CPET and 6MWT were to occur within 14 days before Randomization. The end of the Screening Period coincided with the beginning of the Treatment Period.
# participants with HFpEF [8] = test: CAPACITY HFpEF Phase 2 trial of praliciguat: safety (treatment-emergent adverse events); format: in vivo, human
# Text: as §1
# (§4) The primary safety endpoints were based on the incidence of treatment-emergent adverse events (TEAEs) and of TEAEs that were considered study drug-related by the investigator. TEAEs were defined as AEs that started or worsened in severity after administration of study drug. Medical history, prior and concomitant medications and surgeries/procedures, and adverse events (AEs) were collected throughout the study. Physical examination, vital sign measurements including orthostatic blood pressures, clinical laboratory tests, pregnancy tests, and ECGs were performed. Blood was also collected to determine pharmacokinetic (PK) parameters and plasma concentrations of praliciguat.
# as §3
# participants with HFpEF [9] = test: CAPACITY HFpEF Phase 2 trial of praliciguat: cardiometabolic endpoints (blood pressure, HbA1c); format: in vivo, human; details: Week 12
# Text: as §1, §4
# Other exploratory endpoints included assessment of echocardiographic parameters (as determined by an independent, central echocardiography core laboratory that was blinded to treatment assignment); changes from baseline to Week 12 and Follow-up visits in New York Heart Association (NYHA) functional classification (I, II, III, or IV); cardiac events (hospitalizations of CV etiology and all deaths were analyzed by the central, independent, blinded cardiac events adjudicators who determined if an event was due to heart failure or was of other CV etiology); changes from baseline to Week 12 in blood and urine biomarker levels that are relevant to HF pathophysiology; and changes from baseline to Week 12 in NT-proBNP values, urine albumin creatinine ratios (UACRs), estimated glomerular filtration rates (eGFRs), and HOMA-IR changes. Changes from baseline responses in participants' self-administered health-related quality-of-life (QOL) questionnaires were also tabulated and analyzed, including the Kansas City Cardiomyopathy Questionnaire (KCCQ), the Sheehan Disability Scale (SDS), the EuroQol (EQ) 5D-5L, and the Quick Inventory of Depressive Symptomatology Self-Report 16-item version (QIDS-SR-16).
# Whereas the change from baseline relative to placebo in the general population was a reduction of 3.5 mmHg in the systolic blood pressure, this change was 7.9 mmHg reduction for the subpopulation of elderly women. Similarly, whereas the change from baseline relative to placebo in the general population was a reduction of 2.1 mmHg in the diastolic blood pressure, this change was 8.2 mmHg reduction for the subpopulation of elderly women. And also similarly, the change from baseline relative to placebo in the general population was a reduction of 0.18% points in the measurement of HbA1C, this change was 0.41% reduction from baseline relative to placebo for the subpopulation of elderly women
# [10] = pooled three highest vericiguat dose arms, 12 weeks, vs placebo
# [11] = 40 mg praliciguat vs placebo, Primary Analytic Population, Week 12
# [12] = elderly women (older than 70), 12 weeks of treatment, CPET responder analysis
# [13] = women of age > 70, week 12, 40 mg
# [14] = women of age > 70, week 12, 40 mg vs placebo
compound,measurement,setting,value
sacubitril-valsartan,"rate ratio for sacubitril-valsartan versus valsartan, primary outcome (HF hospitalizations and cardiovascular death)",[1]; men,1.03
same,"rate ratio for sacubitril-valsartan versus valsartan, primary outcome (HF hospitalizations and cardiovascular death)",[1]; women,0.73
"CCOC(=O)[C@H](CCc1ccccc1)N[C@@H](C)C(=O)N1CCC[C@H]1C(=O)O [enalapril, reference compound]","NT-proBNP, change from baseline to the end of treatment","obese ZSF1 rats; enalapril alone (ENP group), plasma, FIG. 5",increased
NC(=O)[C@](O)(CNc1nc(-c2cc(-c3ccon3)n(Cc3ccccc3F)n2)ncc1F)C(F)(F)F [olinciguat],cardioprotection (cardiac weights),[2],cardioprotective
same,lung congestion (lung weights),[2],reduced lung congestion
same,NT-proBNP levels,[2]; plasma,reduced NT-proBNP levels
same,circulating cholesterol,"obese ZSF1 rats; rat, in vivo",lower
same,circulating glucose,"obese ZSF1 rats; rat, in vivo",lower
same,circulating triglycerides,"obese ZSF1 rats; rat, in vivo",lower
same,renoprotection,"obese ZSF1 rats; rat, in vivo",renoprotective
same,blood pressure,[3],reduced blood pressure
COC(=O)Nc1c(N)nc(-c2nn(Cc3ccccc3F)c3ncc(F)cc23)nc1N [vericiguat],proportion of participants achieving clinically meaningful improvements in KCCQ-clinical summary score,[4]; 10 mg vericiguat compared with placebo arm,larger proportion
same,change in left atrial volume,[4]; [10],NOT different from placebo
same,change in log NT-proBNP,[4]; [10],NOT different from placebo
same,mean change in the physical limitation score of the KCCQ,[5]; 10-mg group,6.5 points
same,mean change in the physical limitation score of the KCCQ,[5]; 15-mg group,5.5 points
OC(CNc1nc(-c2cc(-c3ccon3)n(Cc3ccccc3F)n2)ncc1F)(C(F)(F)F)C(F)(F)F [praliciguat],placebo-adjusted LSM difference in change from baseline in peak VO2,participants with HFpEF [6]; [11],-0.30 mL/min/kg
same,placebo-adjusted LSM difference in change in ventilation/carbon dioxide production slope,participants with HFpEF [6]; [11],−0.3
same,adjusted change from baseline in peak VO2 at Week 12,"participants with HFpEF [6]; 40 mg praliciguat, Primary Analytic Population (n=65), Week 12",-0.26 mL/min/kg
same,patients with a higher than 1 mL/O2/kg/min improvement in peak VO2,participants with HFpEF [6]; [12],About 50%
same,patients with a higher than 1.5 mL/O2/kg/min improvement in peak VO2,participants with HFpEF [6]; [12],35-40%
same,placebo-adjusted LSM difference in change from baseline in peak VO2,"participants with HFpEF [6]; post hoc, elderly women (70 years or older), 40 mg praliciguat (n=16) vs placebo (n=18), Week 8",0.75 mL/min/kg
same,placebo-adjusted LSM difference in change from baseline in peak VO2,"participants with HFpEF [6]; post hoc, elderly women (70 years or older), 40 mg praliciguat (n=16) vs placebo (n=18), Week 12",1.58 mL/min/kg
same,improvement in peak work load,"participants with HFpEF [6]; sub-population of elderly women, week 12",about 6.5%
same,worsening in peak work load,participants with HFpEF [6]; whole population,1%
same,Peak Workload LS Mean,participants with HFpEF [6]; [13],12.6395 Watts
same,Peak Workload LS Mean Diff,participants with HFpEF [6]; [14],6.5195 Watts
same,placebo-adjusted LSM difference in change from baseline in 6MWT distance,participants with HFpEF [7]; [11],−16.7 m
same,adjusted change in 6-minute walk test (6MWT) distance,"participants with HFpEF [7]; 40 mg praliciguat, Primary Analytic Population, Week 12",41.4 m
same,improvement in 6MW vs placebo,participants with HFpEF [7]; subpopulation of elderly women,23 meters
same,Six Minute Walk Test LS Mean,participants with HFpEF [7]; [13],73.6369
same,Six Minute Walk Test LS Mean Diff,participants with HFpEF [7]; [14],22.7533
same,deaths,"participants with HFpEF [8]; 40 mg praliciguat, fatal events considered not related to study drug",One death
same,participants with at least one TEAE of dizziness,"participants with HFpEF [8]; human, in vivo, 12 weeks",9.9%
same,participants with at least one TEAE of headache,"participants with HFpEF [8]; human, in vivo, 12 weeks",11%
same,participants with at least one TEAE of hypotension,"participants with HFpEF [8]; human, in vivo, 12 weeks",8.8%
same,participants with at least one serious TEAE,"participants with HFpEF [8]; human, in vivo, 12 weeks",10%
same,"reduction in HbA1C, change from baseline relative to placebo",participants with HFpEF [9]; general population,0.18 % points
same,"reduction in diastolic blood pressure, change from baseline relative to placebo",participants with HFpEF [9]; general population,2.1 mmHg
same,"reduction in systolic blood pressure, change from baseline relative to placebo",participants with HFpEF [9]; general population,3.5 mmHg
same,"reduction in HbA1C, change from baseline relative to placebo",participants with HFpEF [9]; subpopulation of elderly women,0.41%
same,"reduction in diastolic blood pressure, change from baseline relative to placebo",participants with HFpEF [9]; subpopulation of elderly women,8.2 mmHg
same,"reduction in systolic blood pressure, change from baseline relative to placebo",participants with HFpEF [9]; subpopulation of elderly women,7.9 mmHg

# From US20240366596A1, “TREATMENT OF HFPEF IN POST-MENOPAUSAL WOMEN WITH AN SGC STIMULATOR” (Cyclerion Therapeutics, Inc., priority 2021, published 2024)
